# From a melting point compilation (Tetko et al.; mined from patent text by program, amines drawn as free bases though some values may be those of a salt)
row,Structure (SMILES),melting point
1,O=C1N(CC2CCCO2)c2c(F)cccc2C12COc1cc3c(cc12)CCO3 (stereo not given),169 to 170 °C
2,O=c1sc2cc(Cl)ccc2n1CCCCl,131 to 132 °C
3,CCC1(CC(=O)O)OCCc2nc(-c3ccccc3)sc21 (stereo not given),106 to 108 °C
4,Cc1ccccc1Sc1ccc2c(c1)CC[C@H]1NC(=O)CC[C@]21C,192 °C
5,COc1cc2c(cc1OCc1ccccc1)CN(Cc1ccccc1)C2,94 to 96 °C
6,O=C(O)C=Cc1cc(Cl)ccc1C(=O)O,200 to 202 °C
7,NNC(=O)c1ccnc2[nH]ccc12,239 to 240 °C
8,COc1cc(Br)cc(-c2ccc3nonc3c2)c1,135 to 137 °C
9,N#Cc1cc(C=O)ccc1-n1cncn1,134 to 141 °C
10,CCOC(=O)Cc1sc(Sc2ccnc(SC)n2)nc1C,68 to 72 °C
11,COc1ccc(CN2CCC(c3cn(Cc4ccoc4)c4ccccc34)CC2)cc1C(=O)O,253 to 255 °C
12,CN1C(=O)N(c2c(Cl)cccc2Cl)Cc2cnc(NCc3ccccc3)nc21,195 to 198 °C
13,Cc1cc(N2CC=C(C(=O)OC(C)C)CC2)c2cccc(Br)c2n1,130 to 131 °C
14,FC(F)(F)c1ccc(-c2ccc(N3CCCN(c4ccc(-c5ccc(C(F)(F)F)cc5)cn4)CC3)nc2)cc1,236 to 238 °C
15,O=C1OC2(CCNCC2)CN1Cc1ccccc1,69 to 71 °C
16,C=C(C)Cc1c(C)c2c(c(C)c1O)CCN2C=O,132 to 134 °C
17,CCOC(=O)c1cn(Cc2cccnc2)nc1OCc1cccnc1,120 to 121 °C
18,CCOCc1nc2c(N)nc3ccccc3c2n1NCCCNC(=O)NC(C)C,174 to 177 °C
19,COC(=O)c1ccc(OC)nc1SCc1ccccc1,67 to 71 °C
20,COC(=O)c1c(Br)ccc2[nH]ncc12,164 to 165 °C
21,O=c1c(-c2ccc(F)cc2)coc2cc(O)c(O)cc12,296 °C
22,CN1CCN(C(=O)c2cn(C)nc2Nc2ccc(C(F)(F)F)cc2N)CC1,170 °C
23,COc1cncnc1N1CCN(C(=O)OC(C)(C)C)CC1C (stereo not given),70 to 72 °C

row,Structure (SMILES),melting point
1,C=CCNC(=O)N1CC(OCc2cccc(C(F)(F)F)c2)C1,108 °C
2,COC(=O)c1cc(Cl)c2nc(C)cn2c1N,188 to 191 °C
3,CC(=O)[C@@H]1C[C@H](C(=O)OC(C)(C)C)N(C(=O)CNC(=O)Nc2cccc(C)c2)[C@@H]1c1ccccc1 (racemic),100 °C
4,CCCCn1c(C)c(C)cc(O)c1=O,112 to 116 °C
5,CC(=O)CCC(=O)N1CCN(c2c(F)cc(N3CC(CNC(C)=O)OC3=O)cc2F)CC1 (stereo not given),52 to 56 °C
6,CCC(=O)Oc1ccc2c(c1)CCC(CN1CCC(O)(c3ccccc3)CC1)C2=O (stereo not given),170 to 172 °C
7,Cc1cc(C)c(-n2c(C)c(C)c3c(C#N)nc(C)nc32)c(C)c1,188 to 190 °C
8,Cc1ccc(NC(=O)N2CCC(=C(F)c3cccc(Oc4ccc(C(F)(F)F)cn4)c3)CC2)cn1,158 to 160 °C
9,N#CCN(CP(=O)(Oc1ccccc1)Oc1ccccc1)N=O,76 to 78 °C
10,COc1cc(C(=O)c2csc(-c3ccc(N)cc3)n2)cc(OC)c1OC,166 to 169 °C
11,CN(C)CC(O)c1cc(C(F)(F)F)nc2c(C(F)(F)F)cccc12 (stereo not given),80 to 80.7 °C
12,CC(Cc1c[nH]c2ccccc12)NC(=O)C=C1CCC(c2cccc(F)c2)(N(C)C)CC1 (stereo not given),163 to 166 °C
13,O=C(CN(C(=O)C(=O)N(CC(=O)OCc1ccccc1)S(=O)(=O)C(F)(F)F)S(=O)(=O)C(F)(F)F)OCc1ccccc1,53 to 55 °C
14,CCC(=O)c1cc2c(s1)CCCN(CCCCCl)C2=O,91 to 92 °C
15,O=C(Cl)c1cc(Oc2ccc(Br)cc2)cc(C(=O)Cl)c1,80 to 81 °C
16,CCOC(=O)c1c(O)c2c(CC)nc(CC)cc2[nH]c1=O,159 to 160 °C
17,COCON=C(C(=O)C=CN(C)C)C(=O)OC,99 to 100 °C
18,COc1cc(C)c(C(O)c2c(Cl)cnc(Cl)c2C(F)(F)F)c(OC)c1OC (stereo not given),162 to 165 °C
19,CC1=CC(C)(C)Nc2ccc3c(c21)C(=C1SCCCS1)Oc1ccc(F)cc1-3,120 to 122 °C
20,NS(=O)(=O)c1cccc2nonc12,157 to 159 °C
21,CC(C)C(C)(C#N)N1C(=O)c2ccc3c(ccn3C)c2C1=O (stereo not given),123 to 128 °C
22,COc1cc2nc(-c3n[nH]cc3NC(=O)N(C)C)[nH]c2cc1Cl,> 300 °C
23,O=C1NC(=O)C2(C=COc3c2ccc2ncccc32)N1 (stereo not given),330 °C

row,Structure (SMILES),melting point
1,CN(C)C(=O)CON(Cc1ccc(F)cc1)C(=O)C=C(O)C(=O)O,118 to 120 °C
2,Cc1ccc(C2C(=O)CC(C)(C)CC2=O)c(C)c1,167 to 169 °C
3,CC(C)NC(=O)N1CCc2[nH]cnc2C1c1ccncc1 (stereo not given),212 °C
4,COc1cccc(Cl)c1-c1cc2c(c3c1C(=O)NC3=O)c1cc(O)ccc1n2CCCN1C[C@@H](C)N[C@@H](C)C1,199 to 202 °C
5,COc1ccc(CCNC(=O)OC(C)(C)C)cc1OC,63 to 67 °C
6,O=C(Nc1ccc2ccc(Cl)nc2n1)c1ccc(Br)o1,285 °C
7,CC(=O)Nc1nc2c(Oc3cc(-c4ccc(C(F)(F)F)cc4NCc4cncn4Cc4ccccc4)ncn3)cccc2s1,264 °C
8,CCC(=O)NCC1CC1c1c(Br)ccc2nn(C)cc12 (stereo not given),119 to 121 °C
9,N#CC(C(=O)Nc1ccccc1)C(=O)c1nn(-c2ccccc2)c2c1CSc1ccc(NC(=O)CN)cc1-2 (stereo not given),218 to 221 °C
10,CN(C(=O)c1ccc2nonc2c1)C1CCCCC1=O (stereo not given),144 to 145 °C
11,N#Cc1c(N2CCc3ccccc3CC2)nc(CCO)[nH]c1=O,184 to 188 °C
12,O=C(Cl)c1cnc(O)c(Cl)c1,> 250 °C
13,N=C(NO)c1nn(-c2c(Cl)cc(C(F)(F)F)cc2Cl)c(C=NO)c1SC(F)(F)F,68 to 72 °C
14,CN=C1SC2Cc3ccc(S(C)(=O)=O)cc3C2(O)N1C (stereo not given),158 °C
15,CCC(C)Nc1nc2ncnn2c2c1cnc1c2cnn1CC (stereo not given),228 to 230 °C
16,CCOC(=O)Cc1c[nH]c2cc(C3CC3)nn2c1=O,280 to 283 °C
17,CCCCCCCCCCCCCCCCCCCCCCCCNc1ccc(C(=O)C(F)(F)F)cc1,89 to 90 °C
18,CC(C)(C)OC(=O)N1CCC(=O)N1c1ccccc1,150 °C
19,C=C(n1c(=O)n(CCCl)c2ccccc21)C(F)(F)F,158 to 160 °C
20,COc1cc2c(c3c1OC(C)(C)C3)C(c1cccnc1)=NC(C)(C)C2,113 to 114 °C
21,Cn1c(=O)c2ncn3c2n(c1=O)CC=C3c1cccc(C(F)(F)F)c1,287 to 290 °C
22,O=C(N[C@@H]1CCc2ccccc21)c1nn(-c2ccc(F)cc2F)c2c1C1CCC2C1 (stereo not given in full),158 to 161 °C

# Next, values leading:
row,melting point,Structure (SMILES)
1,117 to 119 °C,COC1=C(OC)C(=O)C2=C(CCC(CCOc3ccc(Cl)cc3)CC2)C1=O
2,220 to 222 °C,O=C(NCCc1c[nH]cn1)c1[nH]c2ccc(Cl)cc2c1S(=O)(=O)c1ccccc1
3,96 to 98 °C,CCOC(=O)c1ccc(NCC(C)Oc2ccc(F)cc2)cc1 (stereo not given)
4,> 300 °C,COc1ccc(-c2[nH]c3ccccc3c(=O)c2C(=O)O)cc1
5,88 to 90 °C,CCCCCCC1=NOC(=O)/C1=C\Nc1ccc(CCCCCC)cc1
6,154 to 155 °C,CCOC(=O)c1cc(NCc2ccccc2)c(Oc2ccccc2)c(S(=O)(=O)N(C)C)c1
7,192 to 195 °C,CC(c1oc2ccccc2c(=O)c1-c1cccc(F)c1)n1nc(-c2cc(O)ccc2Cl)c2c(N)ncnc21 (stereo not given)
8,135 to 136 °C,Cc1oc(-c2ccco2)nc1COc1ccc(COc2ncccc2C#N)cc1
9,113 °C,CCN(CC)C(=O)COc1nc(-c2ccccc2)nc2ccccc12
10,92 to 96 °C,C[C@@H](C(=O)OC(C)(C)C)N(Cc1ccccc1)S(=O)(=O)c1ccc2c(Cl)cnc(Cl)c2c1
11,274 to 277 °C,Nc1nc(-c2ccc(CCN3CCN(c4cccc5ccccc45)CC3)cc2)cs1
12,72 to 75 °C,O=Cc1cccc(OCc2nc(-c3ccccc3)c(-c3ccccc3)o2)c1
13,84.9 °C,CCCCOc1ccc(-c2nc(CCOS(=O)(=O)c3ccc(C)cc3)c(C)o2)cc1
14,176 to 178 °C,O=C(O)c1ccc(-c2ccccc2O)cc1
15,> 40 °C,CCCCc1nnc(C(=O)N(C)Cc2ccccc2)n1Cc1ccc(-c2ccccc2C#N)cc1
16,242 to 244 °C,Cc1ccc(C)c(Nc2ncc(C(=O)O)c(=O)[nH]2)c1

row,melting point,Structure (SMILES)
1,299 to 300 °C,N#Cc1ccc(-c2ccc(-c3ccc(C#N)cc3)cc2)cc1
2,30 °C,C=CC(=O)OCCCCCCOc1ccc(C=O)cc1
3,128 to 129 °C,O=C(O)CCCCCCNS(=O)(=O)c1ccc(Cl)cc1
4,132 to 138 °C,CC(C)[C@H]1c2ccc(F)cc2CC[C@]1(O)CC(=O)N(C)CCCc1nc2ccccc2[nH]1
5,224 to 243 °C,CCc1nc2c(N)nc3ccccc3c2n1CC#Cc1cccc([N+](=O)[O-])c1
6,111 to 113 °C,CCCc1ccc(S(=O)(=O)c2ccc(F)cc2)cc1S(=O)(=O)NCCc1cccnc1
7,195 to 197 °C,CN1CCCC(c2nc(-c3ccncc3)c(-c3ccc(F)cc3)[nH]2)C1 (stereo not given)
8,260 to 262 °C,CCOC(=O)c1ccc(NC(=O)N2CCn3c(c(C(N)=O)c(Cl)c3-c3ccccc3)C2)cc1
9,158 °C,COc1ccc(Cc2nc3c(c4c2[nH]c2ccccc24)CCC(C)(C)C3)cc1
10,91 to 93.5 °C,CN1CCCCC1CCc1ccccc1NC(=O)c1ccc(OC(C)(C)C)cc1 (stereo not given)
11,240 to 242 °C,Cc1cc(F)ccc1Oc1ccc(C2=CC=CN3CCS(=O)(=O)N=C23)cc1
12,93 to 96 °C,CCCNC(=O)c1cccc(C2(c3ccc(OC(F)F)cc3)N=C(N)N(C)C2=O)c1 (stereo not given)
13,108 to 109 °C,Cc1oc(-c2ccccc2)nc1COc1ccc(Cn2cc(CCC(=O)O)c(OCc3ccccc3)n2)cc1
14,118 to 119 °C,CCCc1nn(-c2ccc(C(F)(F)F)cn2)cc1CCCOc1ccc(CCC(=O)O)cc1
15,118 to 119 °C,CC(C(=O)O)c1ccc(-c2ccc(F)cc2)c(F)c1 (stereo not given)
16,130 to 133 °C,CC(C)c1c(C(=O)Nc2ccc(O)cc2)c(-c2ccccc2)c(-c2ccc(F)cc2)n1CC[C@@H]1C[C@@H](O)CC(=O)O1
